The test system of this assay is lashes and adjacent hairs. Briefly: Clinical observation of lashes and adjacent hairs in glaucoma patients treated with bimatoprost in only one eye. The class given is in vivo. The text has this: In the course of treating patients having glaucoma, treatment may only be appropriate in one eye. […] The lash appearance on the lids of the treated eyes would have appeared quite attractive if it represented a bilateral phenomenon. As a result of its asymmetric nature, the long lashes on one side could be construed as disturbing from a cosmetic standpoint. A systemic examination was preformed as a result of the asymmetric phenomenon. It soon became apparent that this altered appearance was not an isolated finding.
The changes in the lashes were apparent on gross inspection in several patients once attention was focused on the issue. In those with light colored hair and lashes, the differences were only seen easily with the aid of the high magnification and lighting capabilities of the slit lamp biomicroscope. In the course of glaucoma follow-up examination, attention is generally immediately focused on the eye itself. As a result of the high power magnification needed only one eye is seen at a time and the eye is seen at a high enough power that the lashes are not in focus. At these higher powers, any lash asymmetry between the two eyes is not likely to be noticed except by careful systematic comparison of the lashes and adjacent hairs of the eyelids of the two eyes.
Observed parameters leading to the conclusion that more robust hair growth occurred in the treatment area following administration of the prostaglandin analogue were multiple. They included increased length of lashed, increased number of lashes along the normal lash line, increased thickness and luster of lashes, increased auxiliary lash-like terminal hair in transitional areas adjacent to areas of normal lash growth, increased auxiliary lash-like terminal hairs at the medial and lateral canthal area, increased pigmentation of the lashes, increased numbers, increased length, as well as increased luster, and thickness of fine hair on the skin of the adjacent lid, and finally, increased perpendicular angulation of lashes and lash-like terminal hairs.

With `CCNC(=O)CCC/C=C\C[C@@H]1[C@@H](/C=C/[C@@H](O)CCc2ccccc2)[C@H](O)C[C@@H]1O` [bimatoprost], for the setting “a glaucoma patient treated with bimatoprost in one eye, gross examination”, the “lash appearance in treated eye versus non-treated eye” value is “longer, thicker, and fuller in the treated eye than in the non-treated eye”. Also, for the setting “all patients taking the drug on a unilateral basis for longer than 6 months”, the “differences in the lashes and adjacent hairs of treated side” value was “Definite differences could be identified to varying degrees”. Further, under “many subjects, lash length, number, thickness, luster, pigmentation, auxiliary terminal hairs”, the “hair growth, conclusion from multiple parameters of hair appearance in treated versus control areas” value is recorded as “hair growth is stimulated”.

(Values after patent publication US20090192151A1, “THERAPEUTIC AMIDES AND RELATED COMPOUNDS” (priority 2008, published 2009).)
